Experimental data from ChEMBL document CHEMBL1201862, “PubChem BioAssay data set” (2004).
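Values below derive from 48-hour exposures of cells grown in 96-well plates, with endpoints linearly interpolated between the two concentrations bracketing the appropriate inhibition level. GI50: concentration for 50% inhibition of growth.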 Activity calls are given as the source filed them. No stated cut-off is given here; in the data, active = GI50 up to about 1.1 µM and inactive = higher.

Key:
Assay in all cases: NCI tumour cell line growth inhibition, 48 h
SR = system: SR
M19-MEL = system: M19-MEL
SNB-19 = system: SNB-19
RXF 631 = system: RXF 631
KM12 = system: KM12
SF-268 = system: SF-268
NCI-H226 = system: NCI-H226
OVCAR-5 = system: OVCAR-5
A498 = system: A498
NCI-H23 = system: NCI-H23
DMS-114 = system: DMS-114
SF-539 = system: SF-539
CAKI-1 = system: CAKI-1
A549 = system: A549
CCRF-CEM = system: CCRF-CEM
IGROV-1 = system: IGROV-1
M14 = system: M14
SK-MEL-28 = system: SK-MEL-28
HCT-116 = system: HCT-116
HOP-18 = system: HOP-18
SK-MEL-2 = system: SK-MEL-2
HOP-92 = system: HOP-92
SK-MEL-5 = system: SK-MEL-5
SNB-75 = system: SNB-75
TK-10 = system: TK-10
HT-29 = system: HT-29
OVCAR-3 = system: OVCAR-3
UO-31 = system: UO-31
SNB-78 = system: SNB-78
MOLT-4 = system: MOLT-4
LXFL 529 = system: LXFL 529
SF-295 = system: SF-295
LOX IMVI = system: LOX IMVI
K562 = system: K562
UACC-62 = system: UACC-62
SK-OV-3 = system: SK-OV-3
U-251 = system: U-251
SN12C = system: SN12C
HOP-62 = system: HOP-62
COLO 205 = system: COLO 205
NCI-H460 = system: NCI-H460
HCC 2998 = system: HCC 2998
SW-620 = system: SW-620
HCT-15 = system: HCT-15
OVCAR-8 = system: OVCAR-8
RXF 393 = system: RXF 393
786-0 = system: 786-0
NCI-H522 = system: NCI-H522
ACHN = system: ACHN
XF498 = system: XF498
Malme-3M = system: Malme-3M
RPMI-8226 = system: RPMI-8226
HL-60 = system: HL-60
KM-20L2 = system: KM-20L2
EKVX = system: EKVX
DMS-273 = system: DMS-273
UACC-257 = system: UACC-257
OVCAR-4 = system: OVCAR-4
DLD-1 = system: DLD-1

SMILES: COc1ccc(/C=C/C(=O)c2sc(-n3nc(-c4ccccc4)cc3-c3ccccc3)nc2C)cc1
- GI50 (SR): > 10 µM (inactive)
- GI50 (M19-MEL): > 10 µM (inactive)
- GI50 (SNB-19): > 10 µM (inactive)
- GI50 (RXF 631): > 10 µM (inactive)
- GI50 (KM12): 76.4 µM (inactive)
- GI50 (SF-268): > 10 µM (inactive)
- GI50 (NCI-H226): > 10 µM (inactive)
- GI50 (OVCAR-5): > 10 µM (inactive)
- GI50 (A498): > 10 µM (inactive)
- GI50 (NCI-H23): > 10 µM (inactive)
- GI50 (DMS-114): 31.3 µM (inactive)
- GI50 (SF-539): > 10 µM (inactive)
- GI50 (CAKI-1): 55.2 µM (inactive)
- GI50 (A549): > 10 µM (inactive)
- GI50 (CCRF-CEM): > 10 µM (inactive)
- GI50 (IGROV-1): > 10 µM (inactive)
- GI50 (M14): > 10 µM (inactive)
- GI50 (SK-MEL-28): > 10 µM (inactive)
- GI50 (HCT-116): > 10 µM (inactive)
- GI50 (HOP-18): > 10 µM (inactive)
- GI50 (SK-MEL-2): > 10 µM (inactive)
- GI50 (HOP-92): > 10 µM (inactive)
- GI50 (SK-MEL-5): 52.1 µM (inactive)
- GI50 (SNB-75): 8.43 µM (inactive)
- GI50 (TK-10): > 10 µM (inactive)
- GI50 (HT-29): 30.5 µM (inactive)
- GI50 (OVCAR-3): 62.5 µM (inactive)
- GI50 (UO-31): 31.6 µM (inactive)
- GI50 (SNB-78): > 10 µM (inactive)
- GI50 (MOLT-4): 56.6 µM (inactive)
- GI50 (LXFL 529): > 10 µM (inactive)
- GI50 (SF-295): > 10 µM (inactive)
- GI50 (LOX IMVI): > 10 µM (inactive)
- GI50 (K562): 52.2 µM (inactive)
- GI50 (UACC-62): > 10 µM (inactive)
- GI50 (SK-OV-3): > 10 µM (inactive)
- GI50 (U-251): 62.2 µM (inactive)
- GI50 (SN12C): 75.9 µM (inactive)
- GI50 (HOP-62): > 10 µM (inactive)
- GI50 (COLO 205): > 10 µM (inactive)
- GI50 (NCI-H460): > 10 µM (inactive)
- GI50 (HCC 2998): > 10 µM (inactive)
- GI50 (SW-620): > 10 µM (inactive)
- GI50 (HCT-15): 75.2 µM
- GI50 (OVCAR-8): > 10 µM (inactive)
- GI50 (RXF 393): > 10 µM (inactive)
- GI50 (786-0): > 10 µM (inactive)
- GI50 (NCI-H522): 63.1 µM (inactive)
- GI50 (ACHN): > 10 µM (inactive)
- GI50 (XF498): 33.7 µM (inactive)
- GI50 (Malme-3M): > 10 µM (inactive)
- GI50 (RPMI-8226): 39.7 µM (inactive)
- GI50 (HL-60): > 10 µM (inactive)
- GI50 (KM-20L2): 77.4 µM (inactive)
- GI50 (EKVX): 6.25 µM (inactive)
- GI50 (DMS-273): > 10 µM (inactive)
- GI50 (UACC-257): 79.1 µM (inactive)
- GI50 (OVCAR-4): 43.6 µM (inactive)
- GI50 (DLD-1): > 10 µM (inactive)
